The text below walks through data of patent US10688093B2, “Methods, compositions, and uses of novel Fyn kinase inhibitors” (priority 2015, dated 2020).

For the test, the target named is full-length recombinant human FYN A (Homo sapiens (Human), UniProt P06241). The test can be described thus: ADP-Glo Kinase Assay of FYN kinase inhibition. Type of test: biochemical. The conditions noted are these: primary screen, initial compounds. The gist of the method: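 ADP-Glo read-out of peptide phosphorylation after 90 min RT with 12.5 pmol ATP and 100 pg 12-mer substrate. Enzyme was N-GST full-length human FYN A from insect cells, 3 pg, pre-incubated 30 min with compound, 10 points from 10 μM top, 3-fold steps; IC50 from curve.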
Sequence of full-length recombinant human FYN A (P06241 whole entry): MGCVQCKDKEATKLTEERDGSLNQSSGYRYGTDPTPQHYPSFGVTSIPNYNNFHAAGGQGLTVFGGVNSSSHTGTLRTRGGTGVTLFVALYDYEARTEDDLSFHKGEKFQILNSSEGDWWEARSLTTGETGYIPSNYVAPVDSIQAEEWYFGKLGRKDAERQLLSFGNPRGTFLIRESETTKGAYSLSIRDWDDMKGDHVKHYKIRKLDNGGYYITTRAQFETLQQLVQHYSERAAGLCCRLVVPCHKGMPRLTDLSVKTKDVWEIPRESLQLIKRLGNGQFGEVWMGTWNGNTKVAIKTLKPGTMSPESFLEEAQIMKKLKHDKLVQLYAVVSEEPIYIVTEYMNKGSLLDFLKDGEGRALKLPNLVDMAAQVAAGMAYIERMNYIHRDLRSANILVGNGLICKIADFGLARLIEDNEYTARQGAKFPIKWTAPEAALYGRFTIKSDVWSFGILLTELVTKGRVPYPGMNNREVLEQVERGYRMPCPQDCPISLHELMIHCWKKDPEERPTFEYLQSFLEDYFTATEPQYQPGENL
Background: ADP-Glo turns the ADP formed in a reaction into a luminescent signal.

Broadly, the IC50 is the point on the concentration scale where inhibition reaches its midpoint. For `CN(C)c1cccc(-c2cnc3sc(NC4CCC(O)CC4)nn23)c1` (centres unmarked) [Compound 262, 4-[[5-[3-(dimethylamino)phenyl]imidazo [2,1-a] [1,3,4]thiadiazol-2-yl]amino] cyclohexanol], the half-inhibitory concentration (IC50) amounted to 5790 nM. For `CC(C)CNc1nn2c(-c3cccc(NS(C)(=O)=O)c3)cnc2s1` [Compound 263, N-[3-[2-(isobutylamino)imidazo[2,1-b] [1,3,4]thiadiazol-5-yl]phenyl] methane-sulfonamide], the IC50 was 7070 nM. As for `NC(=O)c1cccc(-c2cnc3sc(NCCCO)nn23)c1` [Compound 264, 3-[2-(3-hydroxypropyl-amino)imidazo [2,1-b][1,3,4]thiadiazol-5-yl]benzamide], the figure is 2880 nM. Take `Oc1ccc(-c2cnc3sc(NC4CCC(O)CC4)nn23)cc1` (centres unmarked) [Compound 265, 4-[2-[(4-hydroxycyclo-hexyl)amino]imidazo[2,1-b] [1,3,4]thiadiazol-5-yl]phenol]: the IC50 is 3800 nM. As for `NC(=O)c1cccc(-c2cnc3sc(NCc4ccco4)nn23)c1` [Compound 266, 3-[2-(2-furylmethyl-amino)imidazo[2,1-b] [1,3,4]thiadiazol-5-yl]benzamide], the concentration for half-maximal inhibition (IC50) was determined as 1230 nM.

For the molecule `COc1ccc(-c2cnc3sc(NCCc4ccc(S(N)(=O)=O)cc4)nn23)cn1` [Compound 267, 4-[2-[[5-(6-methoxy-3-pyridyl)imidazo [2,1-b] [1,3,4]thiadiazol-2-yl]amino]ethyl]benzene-sulfonamide], the concentration for half-maximal inhibition (IC50) worked out at 2610 nM.

Take `CN(C)C(=O)c1cccc(-c2cnc3sc(NCC4CCOCC4)nn23)c1` [Compound 268, N,N-dimethyl-3-[2-(tetrahydro-pyran-4-ylmethylamino)imidazo[2,1-b] [1,3,4]thiadiazol-5-yl]benzamide]: the 50% inhibitory concentration (IC50) is 2730 nM.

As to `COc1cncc(-c2cnc3sc(NCC(C)C)nn23)c1` [Compound 270, N-isobutyl-5-(5-methoxy-3-pyridyl)imidazo [2,1-b] [1,3,4]thiadiazol-2-amine], the IC50 is 5170 nM.

With `COc1cncc(-c2cnc3sc(NCc4ccc5c(c4)OCO5)nn23)c1` [Compound 271, N-(1,3-benzodioxol-5-ylmethyl)-5-(5-methoxy-3-pyridyl)imidazo [2,1-b] [1,3,4]thiadiazol-2-amine], the 50% inhibitory concentration (IC50) came to 448 nM.

In the case of `COc1cc(-c2cnc3ccc(-c4ccc(NC(C)=O)cc4)nn23)ccc1O` [Compound 272, N-[4-[3-(4-hydroxy-3-methoxy-phenyl)imidazo [1,2-b]pyridazin-6-yl]phenyl] acetamide], the IC50 was found to be 169 nM. Consider `CC(=O)Nc1cccc(-c2cnc3ccc(-c4ccc5c(c4)OCO5)nn23)c1` [Compound 273, N-[3-[6-(1,3-benzodioxol-5-yl)imidazo[1,2-b]pyridazin-3-yl]phenyl] acetamide], for which the IC50 turned out to be 1170 nM.

Regarding `CC(=O)Nc1cccc(-c2ccc3ncc(-c4ccc5c(c4)OCO5)n3n2)c1` [Compound 274, N-[3-[3-(1,3-benzodioxol-5-yl)imidazo[1,2-b]pyridazin-6-yl]phenyl] acetamide], the IC50 was determined as 1110 nM. For `CC(=O)Nc1cc(-c2ccc(C(=O)N3CCOCC3)cc2)cn2c(-c3cccc(C(C)=O)c3)cnc12` [Compound 275], the half-inhibitory concentration (IC50) turned out to be 2030 nM.

As to `CC(=O)Nc1cccc(-c2cnc3ccc(-c4cccc(OC(F)(F)F)c4)nn23)c1` [Compound 276, N-[3-[6-[3-(trifluoromethoxy)phenyl]imidazo [1,2-b]pyridazin-3-yl]phenyl] acetamide], the IC50 stood at 1500 nM. Turning to `COc1ccc(-c2ccc3ncc(-c4cccc(C(C)=O)c4)n3n2)cc1OC` [Compound 277, 1-[3-[6-(3,4-dimethoxyphenyl)imidazo[1,2-b]pyridazin-3-yl]phenyl] ethanone], the 50% inhibitory concentration (IC50) was 653 nM. The same measure for `CC(=O)Nc1cccc(-c2cnc3ccc(-c4ccc(S(C)(=O)=O)cc4)nn23)c1` [Compound 278, N-[3-[6-(4-methylsulfonyl-phenyl)imidazo [1,2-b]pyridazin-3-yl]phenyl] acetamide]: 1080 nM; for `CC(=O)Nc1cccc(-c2ccc3ncc(-c4cccc(NC(C)=O)c4)n3n2)c1` [Compound 279, N-[3-[3-(3-acetamidophenyl)imidazo[1,2-b]pyridazin-6-yl]phenyl] acetamide]: 553 nM. `COc1ccc(CNc2nn3c(-c4cccc(C(=O)N(C)C)c4)cnc3s2)cc1` [Compound 280, 3-[2-[(4-methoxyphenyl)methylamino]imidazo[2,1-b] [1,3,4]thiadiazol-5-yl]-N,N-dimethyl-benzamide]: the IC50 is 2330 nM. As for `CC(=O)Nc1cccc(-c2ccc3ncc(-c4cccc(C(C)=O)c4)n3n2)c1` [Compound 281, N-[3-[3-(3-acetylphenyl)imidazo[1,2-b]pyridazin-6-yl]phenyl] acetamide], the half-inhibitory concentration (IC50) came to 620 nM. For `CC(=O)Nc1cccc(-c2cnc3ccc(-c4ccc(C(N)=O)cc4)nn23)c1` [Compound 282, 4-[3-(3-acetamidophenyl)imidazo[1,2-b]pyridazin-6-yl]benzamide], the IC50 is 222 nM. As for `CC(=O)Nc1ccc(-c2ccc3ncc(-c4cccc(O)c4)n3n2)cc1` [Compound 283, N-[4-[3-(3-hydroxyphenyl)imidazo[1,2-b]pyridazin-6-yl]phenyl] acetamide], the half-maximal inhibitory concentration (IC50) amounted to 519 nM. As for `COc1cc(-c2cnc3sc(NCCc4ccncc4)nn23)cc(OC)c1OC` [Compound 284, N-[2-(4-pyridyl)ethyl]-5-(3,4,5-trimethoxy-phenyl)imidazo [2,1-b][1,3,4] thiadiazol-2-amine], the figure is 1770 nM; as for `CN(C)C(=O)c1cccc(-c2cnc3sc(NCc4ccccc4)nn23)c1` [Compound 286, 3-[2-(benzylamino)imidazo[2,1-d] [1,3,4]thiadiazol-5-yl]-N,N-dimethyl-benzamide], 1510 nM; as for `COc1ccc(-c2cnc3sc(NCc4ccncc4)nn23)cn1` [Compound 287, 5-(6-methoxy-3-pyridyl)-N-(4-pyridylmethyl) imidazo[2,1-b] [1,3,4]thiadiazol-2-amine], 2590 nM. For the molecule `CC(=O)Nc1cccc(-c2ccc3ncc(-c4cccc(CO)c4)n3n2)c1` [Compound 288, N-[3-[3-[3-(hydroxymethyl)phenyl]imidazo [1,2-b]pyridazin-6-yl]phenyl] acetamide], the concentration for half-maximal inhibition (IC50) amounted to 1640 nM. With `CN(C)C(=O)c1cccc(-c2cnc3sc(NCc4ccco4)nn23)c1` [Compound 289, 3-[2-(2-furylmethylamino)imidazo[2,1-p] [1,3,4]thiadiazol-5-yl]-N,N-dimethyl-benzamide], the IC50 is 2460 nM.

As for `CC(=O)Nc1cccc(-c2cnc3ccc(-c4ccc(N(C)C)cc4)nn23)c1` [Compound 290, N-[3-[6-(4-dimethylamino-phenyl)imidazo [1,2-a]pyridazin-3-yl]phenyl] acetamide], the IC50 amounted to 1100 nM. In the case of `CC(=O)c1cccc(-c2cnc3c(NC=O)cc(-c4ccc(C(=O)N5CCOCC5)cc4)cn23)c1` [Compound 291, N-[3-(3-acetylphenyl)-6-[4-(morpholine-4-carbonyl)phenyl]imidazo[1,2-a]pyridin-8-yl]formamide], the IC50 was 2990 nM.

For the molecule `COc1cc(-c2cnc3ccc(-c4cccc(NC(C)=O)c4)nn23)ccc1O` [Compound 292, N-[3-[3-(4-hydroxy-3-methoxy-phenyl)imidazo [1,2-b]pyridazin-6-yl]phenyl] acetamide], the concentration for half-maximal inhibition (IC50) came out at 102 nM.
